# Measured values from patent US12617773B2, “Azetidin-3-ylmethanol derivatives as CCR6 receptor modulators” (Idorsia Pharmaceuticals Ltd, priority 2020, dated 2026).
# Biological target: T1, human CCR6 (Homo sapiens, UniProt P51684)
# T1 construct: expressed in transfected cells; host or cells: HEK-293
# T1 sequence (P51684 1-374): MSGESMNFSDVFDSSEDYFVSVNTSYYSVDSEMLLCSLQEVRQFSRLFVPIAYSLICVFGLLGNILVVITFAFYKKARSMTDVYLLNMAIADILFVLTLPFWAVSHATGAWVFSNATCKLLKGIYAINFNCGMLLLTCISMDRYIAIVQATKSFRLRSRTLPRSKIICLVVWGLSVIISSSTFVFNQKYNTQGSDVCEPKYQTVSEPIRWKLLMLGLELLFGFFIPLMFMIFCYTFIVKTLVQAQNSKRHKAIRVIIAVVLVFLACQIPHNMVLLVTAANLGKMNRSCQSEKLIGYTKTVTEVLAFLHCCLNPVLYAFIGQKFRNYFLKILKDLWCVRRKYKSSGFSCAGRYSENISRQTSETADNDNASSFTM
# Test: FLIPR assay (inhibition of CCL20-induced calcium signal)
# Type: cell-based
# Settings: HEK-293 cells expressing human CCR6; mean values where determined several times; read-out: FLIPR IC50
# Method in brief: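 Dye-loaded HEK-293 cells expressing human CCR6 were preincubated with compound for 30 min at room temperature in the dark, then challenged with 10 nM CCL20 (final). Fluorescence was tracked on FLIPR, and baseline-subtracted peak emission over base after agonist addition gave inhibition dose-response curves for IC50.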
row,IC50,Structure (SMILES)
1,94.4 nM,CC1CCC(c2cncc([C@@](O)(c3ccc(C(C)C)cc3)C3(C)CN(C)C3)c2)O1 (stereo partly shown) [Example 319]
2,86 nM,CC(C)c1ccc([C@](O)(c2cncc(C3CCC(C)(C)O3)c2)C2(C)CN(C)C2)cc1 (stereo partly shown) [Example 320]
3,273 nM,"CC(C)c1ccc([C@](O)(c2cncc(CC(F)(F)CO)c2)C2(C)CN(C)C2)cc1 [Example 321, 3-{5-[(R)-(1,3-Dimethyl-azetidin-3-yl)-hydroxy-(4-isopropyl-phenyl)-methyl]-pyridin-3-yl}-2,2-difluoro-propan-1-ol]"
4,49.9 nM,"Cc1cnc(-c2cncc([C@@](O)(c3ccc(C(C)C)cc3)C3(C)CN(C)C3)c2)o1 [Example 322, (R)-(1,3-Dimethyl-azetidin-3-yl)-(4-isopropyl-phenyl)-[5-(5-methyl-oxazol-2-yl)-pyridin-3-yl]-methanol]"
5,67.8 nM,"CC(C)c1ccc([C@](O)(c2cncc(-c3ncc(C4CCOCC4)o3)c2)C2(C)CN(C)C2)cc1 [Example 323, (R)-(1,3-Dimethyl-azetidin-3-yl)-(4-isopropyl-phenyl)-{5-[5-(tetrahydro-pyran-4-yl)-oxazol-2-yl]-pyridin-3-yl}-methanol]"
6,15 nM,"CC(C)c1ccc([C@](O)(c2cncc(COc3ccc(F)cc3)c2)C2(C)CN(C)C2)cc1 [Example 324, (R)-(1,3-Dimethyl-azetidin-3-yl)-[5-(4-fluoro-phenoxymethyl)-pyridin-3-yl]-(4-isopropyl-phenyl)-methanol]"
7,595 nM,"CC(C)NC(=O)OCc1cncc([C@@](O)(c2ccc(C(C)C)cc2)C2(C)CN(C)C2)c1 [Example 325, Isopropyl-carbamic acid 5-[(R)-(1,3-dimethyl-azetidin-3-yl)-hydroxy-(4-isopropyl-phenyl)-methyl]-pyridin-3-ylmethyl ester]"
8,83.3 nM,"CC(C)c1ccc([C@](O)(c2cncc(CCOCc3ccccc3)c2)C2(C)CN(C)C2)cc1 [Example 326, (R)-[5-(2-Benzyloxy-ethyl)-pyridin-3-yl]-(1,3-dimethyl-azetidin-3-yl)-(4-isopropyl-phenyl)-methanol]"
9,168 nM,"CC(C)c1ccc([C@](O)(c2cncc(C3CCC(C)(O)CC3)c2)C2(C)CN(C)C2)cc1 (stereo partly drawn) [Example 327, 4-{5-[(R)-(1,3-Dimethyl-azetidin-3-yl)-hydroxy-(4-isopropyl-phenyl)-methyl]-pyridin-3-yl}-1-methyl-cyclohexanol]"
10,187 nM,"CC(C)c1ccc([C@](O)(c2cncc(C3CC3C(C)(C)O)c2)C2(C)CN(C)C2)cc1 (stereo partly drawn) [Example 328, 2-(2-{5-[(R)-(1,3-Dimethyl-azetidin-3-yl)-hydroxy-(4-isopropyl-phenyl)-methyl]-pyridin-3-yl}-cyclopropyl)-propan-2-ol]"
11,485 nM,"CC(C)c1ccc([C@](O)(c2ccnc(-c3noc(C4CCOCC4)n3)c2)C2(C)CN(C)C2)cc1 [Example 329, (S)-(1,3-Dimethyl-azetidin-3-yl)-(4-isopropyl-phenyl)-{2-[5-(tetrahydro-pyran-4-yl)-[1,2,4]oxadiazol-3-yl]-pyridin-4-yl}-methanol]"
12,143 nM,"CC(C)c1ccc(C(O)(c2cnc(N3CCCC3)nc2)C2(C)CN(C)C2)cc1 (stereo not shown) [Example 330, (1,3-Dimethyl-azetidin-3-yl)-(4-isopropyl-phenyl)-(2-pyrrolidin-1-yl-pyrimidin-5-yl)-methanol]"
13,50.1 nM,"CC(C)c1ccc(C(O)(c2cncc(N3CCCC3)n2)C2(C)CN(C)C2)cc1 (stereo not shown) [Example 331, (1,3-Dimethyl-azetidin-3-yl)-(4-isopropyl-phenyl)-(6-pyrrolidin-1-yl-pyrazin-2-yl)-methanol]"
14,290 nM,[2H]C([2H])([2H])C(=O)NC1(c2nc(-c3cncc([C@@](O)(c4ccc(C(C)C)cc4)C4(C)CN(C)C4)c3)no2)CC1 [Example 332]
15,113 nM,[2H]C([2H])([2H])C(=O)N(C)C1(c2nc(-c3cncc([C@@](O)(c4ccc(C(C)C)cc4)C4(C)CN(C)C4)c3)no2)CC1 [Example 333]
16,216 nM,[2H]C([2H])([2H])C(=O)N(C)Cc1nc(-c2cncc([C@@](O)(c3ccc(C(C)C)cc3)C3(C)CN(C)C3)c2)no1 [Example 334]
